Source: US20250170098A1, “MOLECULAR JACKHAMMER FOR MECHANICAL DESTRUCTION OF CELLULAR STRUCTURE” (William Marsh Rice University, priority 2022, published 2025)

What was measured:
[1] = tested on: A375 human melanoma tumors; experiment: Treatment of A375 human melanoma tumors in nude mice; type: in vivo, mouse
Description: Preparation of fresh solution of 200 μM Cy7.5-amine and 2.5% DMSO for in vivo studies. In the day of treatment, fresh solution of 200 μM Cy7.5-amine was prepared by diluting in PBS buffer the 8 mM Cy7.5-amine stock in DMSO, the final dilution contained 2.5% DMSO. As control 2.5% DMSO in PBS buffer was used.
Injection of A375 cells subcutaneously in athymic nude mice to generate the human melanoma tumor model. The A375 cells were culture as described before. Cells were harvested from sub-confluent plates, ˜90%, and fresh media was added to the cells the day before harvesting. The cells were harvested using 0.05% trypsin-EDTA (Gibco, 25-300-054). The harvested cells were re-dispersed in DMEM media without supplements at 50×10^6 cells mL^−1. The cell suspension was kept in ice. Then 100 μL of cells were injected per mouse (this was 5 million of cells per mouse) subcutaneously in the right flank of 7-8 weeks old female athymic nude mouse. Starting at day 2 the tumors were measured using a caliper. The typical volume of the tumors at day 2 was ˜33 mm^3. The volume of the tumor was calculated as: (½)×length×width×height. When the height was not possible to measure in the case of the tumors that were too small (usually <100 mm^3), then the tumor volume was calculated as: (½)×length×width^2.
Treatment of A375 tumors with Cy7.5-amine and NIR 730 nm light. The tumors were treated at day 3 (since 5 million initial cells were injected per tumor site) when the average tumors size was 35 mm^3. Forty mice were divided in 4 groups (number of mice per group, n=10): 1) Cy7.5-amine only 2) 2.5% DMSO only, 3) 2.5% DMSO+Light and 3) Cy7.5-amine+light. The day of treatment, fresh solutions (200 μM of Cy7.5-amine in PBS and controls 2.5% DMSO in PBS) were prepared as described before. The mice were anesthetized with isoflurane using a vaporizer. Then, each mouse was injected with 50 μL of 200 μM Cy7.5-amine solution in PBS or 2.5% DMSO, intratumorally. Then mice were kept for 25 min in the cages to let the Cy7.5-amine solution or DMSO solution interact with the tumors. Then, after the 25 min of incubation, the mice were treated (under anesthesia, using isoflurane) with 730 nm LED light source from Prizmatix applying a power intensity of 150 mWcm^−2 for 5 min (other power intensities were 210 mWcm^−2 for 5 min and 300 mWcm^−2 for 5 min as described in the treatment schedule in FIG. 27F). The light intensity was measured using an Optical Power Meter from Thorlabs, sensor model S302C and console model PM100D. When the treatment was finished the mice were put back into the cages and housed in the animal facility. The tumors sizes were measured every other day using a caliper in the first 20 days of the study and then in the late stage of the study twice a week.

[2] = tested on: human melanoma A375 cells; experiment: Cell permeabilization to DAPI, flow cytometry analysis; type: cell-based
Description: The activity of plasmon-driven MJHs to open cell membranes by VDA upon NIR light-activation was evaluated in human melanoma A375 cells. When the cell membranes were open by VDA, DAPI enters immediately into the cells and stain the nucleus, and flow cytometry analysis was used to quantify the percentage of DAPI positive cells at variable concentrations of MJH. The flow cytometry analysis is conducted immediately after the cells were treated with 730 nm LED light at 80 mW/cm^2 for 10 min. Typically, it took ˜30 s to start cell counting and observe that DAPI already had entered into the cell membrane-compromised cells but not in the controls without VDA action. This is indicative of a rapid necrotic cell death and cell membrane permeabilization to DAPI by VDA action. The effective concentration needed to permeabilize cells by 50% (VDA IC50) was estimated for each molecule.
The flow cytometry data was analyzed using FlowJo software version 10.5.3. Then, a wide polygonal gate was drawn as shown in FIG. 33A since we were interested in detecting any cell death after treatment, we were not only interested in measuring healthy cell populations. Sometimes, we observed that the death cell population upon treatment shifted outside the gate if a narrow gate was used. Then, the singlets were selected and the DAPI fluorescence intensity was plotted versus the SSC-A and the gate for DAPI positive cells was drawn as shown in FIG. 33C and the analysis was applied to all samples in the group. In FIG. 33D, a DAPI positive population is observed in the same analysis group. This analysis was applied to calculate the percentage of DAPI positive cells.
Cell Permeabilization and flow cytometry analysis. A375 cells were cultured as described before. One day before the treatment, cells were inoculated at 5 million cells per dish (10 cm polystyrene tissue culture dish). The cells were harvested using 0.05% trypsin-EDTA (Gibco, 25-300-054), then the cells were counted and were adjusted to a cell density of 2×10^5 cells/mL in DMEM media with L-glutamine, 4.5 g/L glucose, and sodium pyruvate (Corning Inc. 10013CV) and supplemented with 10% FBS (Corning, 35010CV), 2×MEM vitamin solution (Gibco, 11120052), 1×MEM non-essential amino acid solution (Gibco, 11140050) and penicillin/streptomycin. 1 mL of this cell suspension containing 2×10^5 cells was used in each treatment. In a 1.5 mL Eppendorf tube, […] containing 2 mM Cy7.5-amine (or other cyanine molecule or other concentration) in DMSO (Fisher, 99.7%) was placed in the bottom of the tube, then 1 mL of the cell suspension was added into the tube to get final concentration of 2 μM of Cy7.5-amine containing 0.1% DMSO and 2×10^5 cells. The mixture was then incubated at 37° C. and 5% CO2 for 30 min. Then, 1 mM DAPI was added into the cell suspension. Then, the cells suspension was transferred to a […] tissue culture dish and immediately the cells were treated under the light beam of NIR light of 730 nm at 80 mW/cm^2 (or adjusted powers down to 20 mW/cm^2) for 10 min (or adjusted illumination times down to 30 s) using LED light source (PRIZMATIX, UHP-F-730, Israel) which covered the entire dish. While the cells were treated, the dish was placed on top of an aluminum block painted black, so that the excess NR light and that was not reflected back into the cell suspension while the aluminum block actED as a heat-sink, maintaining a constant temperature in the dish during the irradiation. The instrument for flow cytometry analysis (SONY, MA900 Multi-Application Cell Sorter) was already set up and calibrated by the time the light treatment was finished. Therefore, as soon as the 10-min light treatment was completed, the cell suspension was rapidly transferred from the 35 mm dish to a flow cytometry tube and the cells were analyzed for DAPI permeabilization and Cy7.5-amine binding. It took ˜30 s to load the sample and to start the analysis. […]

CN1/C(=C\C=C2C=C(/C=C/C3=[N+](CCCCCC(=O)NCCCCCCN)c4ccc5ccccc5c4C3(C)C)CCC\2)C(C)(C)c2c1ccc1ccccc21 [Cy7.5-amine]
mice tumor free ([1]; 8 μg intratumoral + light (300 mWcm^−2 of 730 nm LED for 5 min)): 50% | survival rate of mice with A375 tumors ([1]; 8 μg intratumoral + light (300 mWcm^−2 of 730 nm LED for 5 min), day 120): 60% | effect on size of A375 tumors ([1]; 150-215 mWCm^−2): mild therapeutic effect | effect on size of A375 tumors ([1]; 300 mWCm^−2): strong effect on the regression of the tumor size | survival of mice with A375 tumors ([1]; Cy7.5-amine group without light): 20% | permeabilization to DAPI staining, percentage of cells ([2]; 1 μM, 730 nm LED at 80 mW/cm^2 for 10 min): 99.6% | binding to cells upon addition of acetic acid ([2]; 2 μM, acetic acid 0 mM-10 mM): not able to bind efficiently to lipid membranes
